Test results taken from US4699925A, “Biphenylylpropionic acid derivative and pharmaceutical composition containing the same” (priority 1982, dated 1987).
Read-outs that look alike come from different tables or passages of the source.

Assays:
[1] = tested on: carrageenan-induced edema; assay: Inhibitory effect on carrageenan-induced edema; assay type: in vivo, Wistar male rats; details: Rattus norvegicus
Experimental: Five Wistar male rats weighing about 150 g. were used as one group. A 1% dispersion of carrageenan was injected intracutaneously into the foot pad of the right hind foot in a dose of 0.1 ml./rat. The compounds to be tested were orally administered to the rats fasted for 15 hours one hour before the carrageenan injection, or intravenously administered 2 hours […] the carrageenan injection. The volume of the foot subjected to the injection was measured by a mercury plethysmography 3 hours after the carrageenan injection on the test by oral route or 2 hours after the carrageenan injection on the test by intravenous route, and the carrageenan-induced edema was estimated from the obtained measurements.

[2] = Gastric ulceration (gastric irritation test); set-up: species or system Wistar male rats; details: rat, in vivo, po, read-out: UD50
Experimental: Five Wistar male rats weighing about 150 g. were used as one group. The rats were fasted for 24 hours before the test.
Six hours after orally administration of the present compounds to be tested, there was observed an existence of gastric ulcer by the method of Okabe et al (Ohyoyakuri, 16, 241 to 247 (1978)). The UD50 values were calculated from the ulcer incidence of gastric ulcer by the method of Litchfield-Wilcoxon.

[3] = Hydrolysis of FP derivatives in human plasma; assay type: in vitro ADME; details: 37° C., one hour, read-out: Hydrolyzing rate
Experimental: (§1) Each reaction mixture was incubated at 37° C. for one hour.
(§2) The free FP formed by esterase in the plasma was extracted with benzene. After treating the extract with N,O-bis(trimethylsilylacetamide) for trimethylsilylation, the obtained material was determined by gas-liquid chromatography.

[4] = Acute toxicity; set-up: species or system male SLC-ddY mice; details: mouse, in vivo, po
[5] = Hydrolysis of FP derivatives in rat plasma; assay type: in vitro ADME; details: Table 4; rat plasma (Compound Nos. 8 to 13), 37° C., one hour; read-out: Hydrolyzing rate
Experimental: as §1, §2

[6] = Table 1, orally in rats, 50% ulcerative dose
[7] = Table 3, rats, orally, six hours after administration
[8] = human, plasma, Table 1, human plasma
[9] = human, plasma, Table 4, human plasma (Compound Nos. 1 to 7)
[10] = Table 1, orally in mice, 50% lethal dose
[11] = Table 5, mice, orally, observation for 2 weeks

SMILES	ED50 ([1]; iv, 2 h, read-out: ED50 i.v.)	ED50 ([1]; po, 1 h, read-out: ED50 p.o.)	ED50 ([1]; po, read-out: ED50 p.o.)	TD50 at 6 h [2, 6]	TD50 at 6 h [2, 7]	metabolised at 1 h [3, 8]	metabolised at 1 h [3, 9]	LD50 at 336 h [4, 10]	LD50 at 336 h [4, 11]	metabolised at 1 h [5]	ED50 ([1]; po, 1 h, Table 1, rats, orally, one hour before carrageenan injection, read-out: ED50 p.o.)	ED50 ([1]; po, Table 2, rats, orally one hour before carrageenan injection, measured 3 hours after carrageenan, read-out: ED50 p.o.)	metabolised at 1 h ([3]; Table 4, human plasma (Compound Nos. 1 to 7))
CC(=O)OCOC(=O)C(C)c1ccc(-c2ccccc2)c(F)c1 (stereo not shown) [Compound No. 1, acetoxymethyl 2-(2-fluoro-4-biphenylyl)propionate]	0.08 mg/kg	0.5 mg/kg	0.5 mg/kg	3.7 mg/kg	3.6 mg/kg	97.5%	97.5%	880 mg/kg	880 mg/kg				
CCC(=O)OCOC(=O)C(C)c1ccc(-c2ccccc2)c(F)c1 (stereo not shown) [Compound No. 2, propionyloxymethyl 2-(2-fluoro-4-biphenylyl)propionate]	0.07 mg/kg	0.5 mg/kg	0.5 mg/kg	2.5 mg/kg	2.5 mg/kg	94.6%	94.6%	750 mg/kg	750 mg/kg				
CC(C)C(=O)OCOC(=O)C(C)c1ccc(-c2ccccc2)c(F)c1 (stereo not shown) [Compound No. 3, isobutyryloxymethyl 2-(2-fluoro-4-biphenylyl)propionate]	0.1 mg/kg	0.6 mg/kg	0.6 mg/kg	2 mg/kg	2 mg/kg	86.3%	86.3%	600 mg/kg	600 mg/kg				
C/C=C/C(=O)OCOC(=O)C(C)c1ccc(-c2ccccc2)c(F)c1 (stereo not shown) [Compound No. 4, crotonoyloxymethyl 2-(2-fluoro-4-biphenylyl)propionate]	0.08 mg/kg	0.6 mg/kg	0.6 mg/kg	2 mg/kg	2 mg/kg	81.4%	81.4%	600 mg/kg	600 mg/kg				
CC(C)=CC(=O)OCOC(=O)C(C)c1ccc(-c2ccccc2)c(F)c1 (stereo not shown) [Compound No. 5, 3,3-dimethylacryloyloxymethyl 2-(2-fluoro-4-biphenylyl)propionate]	0.06 mg/kg	0.5 mg/kg	0.5 mg/kg	2 mg/kg	2 mg/kg	64.8%	115%	900 mg/kg	900 mg/kg				
CCCCCCCCCCCCCCCC(=O)OCOC(=O)C(C)c1ccc(-c2ccccc2)c(F)c1 (stereo not shown) [Compound No. 6, palmitoyloxymethyl 2-(2-fluoro-4-biphenylyl)propionate]	0.5 mg/kg	1.5 mg/kg	1.5 mg/kg	5 mg/kg	5 mg/kg	3.8%	3.8%	1000 mg/kg	> 1000 mg/kg				
CC(C(=O)OCOC(=O)C(C)(C)C)c1ccc(-c2ccccc2)c(F)c1 (stereo not shown) [Compound No. 7, pivaloyloxymethyl 2-(2-fluoro-4-biphenylyl)propionate]	0.1 mg/kg	0.6 mg/kg	0.6 mg/kg	2.5 mg/kg	2.5 mg/kg	70.3%	70.3%	840 mg/kg	840 mg/kg				
CC(=O)OCCOC(=O)C(C)c1ccc(-c2ccccc2)c(F)c1 (stereo not shown) [Compound No. 8, 2-(acetoxy)ethyl 2-(2-fluoro-4-biphenylyl)propionate]		0.7 mg/kg	0.7 mg/kg	2 mg/kg	2 mg/kg			650 mg/kg	650 mg/kg	101%			
CCC(=O)OCCOC(=O)C(C)c1ccc(-c2ccccc2)c(F)c1 (stereo not shown) [Compound No. 9, 2-(propionyloxy)ethyl 2-(2-fluoro-4-biphenylyl)propionate]		0.7 mg/kg	0.7 mg/kg	2 mg/kg	2 mg/kg			700 mg/kg	700 mg/kg	98.9%			
C/C=C/C(=O)OCCOC(=O)C(C)c1ccc(-c2ccccc2)c(F)c1 (stereo not shown) [Compound No. 10, 2-(crotonoyloxy)ethyl 2-(2-fluoro-4-biphenylyl)propionate]		0.9 mg/kg	0.9 mg/kg	3 mg/kg	3 mg/kg			800 mg/kg	800 mg/kg	99.5%			
CC(C)=CC(=O)OCCOC(=O)C(C)c1ccc(-c2ccccc2)c(F)c1 (stereo not shown) [Compound No. 11, 2-(3,3-dimethylacryloyloxy)ethyl 2-(2-fluoro-4-biphenylyl)propionate]		1 mg/kg	1 mg/kg	3 mg/kg	3 mg/kg			880 mg/kg	880 mg/kg	99.8%			
CC=CC=CC(=O)OCCOC(=O)C(C)c1ccc(-c2ccccc2)c(F)c1 (stereo not shown) [Compound No. 12, 2-(2,4-hexadienoyloxy)ethyl 2-(2-fluoro-4-biphenylyl)propionate]		0.9 mg/kg	0.9 mg/kg	3 mg/kg	3 mg/kg			750 mg/kg	750 mg/kg	100%			
CC(C)=CCCC(C)=CC(=O)OCCOC(=O)C(C)c1ccc(-c2ccccc2)c(F)c1 (stereo not shown) [Compound No. 13, 2-(3,7-dimethyl-2,6-octadienoyloxy)ethyl 2-(2-fluoro-4-biphenylyl)propionate]		0.9 mg/kg	0.9 mg/kg	3 mg/kg	3 mg/kg			750 mg/kg	750 mg/kg	101%			
CC(C(=O)O)c1ccc(-c2ccccc2)c(F)c1 (stereo not shown) [FP, 2-(2-fluoro-4-biphenylyl)propionic acid, reference compound]	0.3 mg/kg	0.8 mg/kg	0.8 mg/kg	1 mg/kg	1 mg/kg			440 mg/kg	440 mg/kg				
COc1ccc2c(c1)c(CC(=O)OCC(=O)O)c(C)n2C(=O)c1ccc(Cl)cc1 [acemethacin, reference compound]								18 mg/kg	18 mg/kg		8.3 mg/kg	8.3 mg/kg	4.2%
COc1ccc2c(c1)c(CC(=O)O)c(C)n2C(=O)c1ccc(Cl)cc1 [indomethacin, reference compound]	1.25 mg/kg	5.5 mg/kg	5.5 mg/kg	5 mg/kg	5 mg/kg			14 mg/kg	14 mg/kg				
